In patent US20170209544A1, “A PEPTIDE THERAPY TO COUNTERACT INSULIN RESISTANCE AND TYPE 2 DIABETES” (The Regents of the University of California, priority 2014, published 2017):
Where no end group is shown, it is not given here.

How the values were obtained:
Heart function = settings: in vivo
peritoneal macrophages = assay: qPCR of inflammatory genes in cultured peritoneal macrophages; format: cell-based, mice; settings: LPS 100 ng/ml, 4 hr; both WT and Chga-KO macrophages
Description: Peritoneal macrophages were isolated after thioglycollate (3% solution in water) stimulation as described. Isolated macrophages were cultured in DMEM with 10% FBS for 48 hours with daily medium changes. Cells were then serum-starved overnight in DMEM with low FBS (0.5%) and then exposed to saline, PST (100 nM), or LPS (100 ng/ml) for 4 hours. At the end of incubation, the cultures were subjected to RNA extraction.
RNA from tissues was extracted using a kit (RNeasy Plus, Qiagen, Valencia, Calif.). After DNase digestion, 200 ng of RNA was transcribed into cDNA in a 20-μl reaction using a High Capacity cDNA Archive kit and this cDNA was amplified. PCR (25-μl reactions) contained 5 μl of cDNA, 2×SYBR Green PCR Master Mix, and 400 nM of each primer. Differences in the threshold cycle number (ΔCt) between the target gene, the housekeeping gene Gapdh and the ribosomal protein gene 36B4 were used to calculate differences in expression. Primer sequences are provided below.
As shown in FIGS. 18A-18H, PST promotes macrophage inflammation and chemotaxis. Peritoneal macrophages were isolated from WT-NCD and KO-NCD after thioglycollate injection. After 4-hr exposure to saline, LPS (100 ng/ml) or PST (100 nM), RNAs were extracted and cDNAs were prepared for qPCR analyses of Chga (FIG. 18A, n=8), iNos (FIG. 18B, n=8), Tnfα (FIG. 18C, n=8), Mcp-1 (FIG. 18D, n=8), IL-6 (FIG. 18E, n=8), IL-12p40 (FIG. 18F, n=8) and iNos genes (FIG. 18G, n=8). (FIG. 18H) Effects of PST on chemotaxis of activated macrophages from NCD-fed C57BL/6J mice (n=5). “*” Denotes comparison between the indicated groups. “*”: P<0.05, “**”: p<0.01, “***”: p<0.001.

Substance | effects on heart function (Heart function) | expression of iNos (peritoneal macrophages)
KGEQEHSQQKEEEEEMAVVPQGLFRG-NH2 [PSTv1] | no adverse effects on heart function | –
lipopolysaccharide [LPS] | – | ~100 fold
